Data reported in ChEMBL document CHEMBL1201862, “PubChem BioAssay data set” (2004).
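Interpolation was linear, between the two tested concentrations surrounding the appropriate level; five concentrations were tested over 48 hours in 96-well plates. Here, GI50 denotes the concentration required for 50% inhibition of growth.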 The source made the active and inactive calls. Cut-off read from the data, not from the text of the source: active = GI50 up to about 1.1 µM and inactive = higher.

How the values were obtained:
Assay in all cases: NCI anticancer screen, dose series, 48 h
HOP-18 = system: HOP-18
RXF 393 = system: RXF 393
786-0 = system: 786-0
SF-295 = system: SF-295
EKVX = system: EKVX
Malme-3M = system: Malme-3M
SK-MEL-5 = system: SK-MEL-5
M19-MEL = system: M19-MEL
OVCAR-8 = system: OVCAR-8
RXF 631 = system: RXF 631
CCRF-CEM = system: CCRF-CEM
DMS-273 = system: DMS-273
HL-60 = system: HL-60
RPMI-8226 = system: RPMI-8226
COLO 205 = system: COLO 205
U-251 = system: U-251
SF-539 = system: SF-539
SN12C = system: SN12C
UO-31 = system: UO-31
HT-29 = system: HT-29
NCI-H226 = system: NCI-H226
NCI-H23 = system: NCI-H23
XF498 = system: XF498
HCC 2998 = system: HCC 2998
SW-620 = system: SW-620
HCT-116 = system: HCT-116
SK-OV-3 = system: SK-OV-3
LXFL 529 = system: LXFL 529
NCI-H522 = system: NCI-H522
A498 = system: A498
DLD-1 = system: DLD-1
CAKI-1 = system: CAKI-1
UACC-62 = system: UACC-62
LOX IMVI = system: LOX IMVI
NCI-H460 = system: NCI-H460
HOP-92 = system: HOP-92
SF-268 = system: SF-268
SR = system: SR
OVCAR-5 = system: OVCAR-5
OVCAR-3 = system: OVCAR-3
DMS-114 = system: DMS-114
A549 = system: A549
KM-20L2 = system: KM-20L2
IGROV-1 = system: IGROV-1
UACC-257 = system: UACC-257
HOP-62 = system: HOP-62
K562 = system: K562
TK-10 = system: TK-10
SNB-19 = system: SNB-19
HCT-15 = system: HCT-15
MOLT-4 = system: MOLT-4
SNB-75 = system: SNB-75
M14 = system: M14
SNB-78 = system: SNB-78
OVCAR-4 = system: OVCAR-4
MCF7 = system: MCF7
NCI/ADR-RES = system: NCI/ADR-RES
SK-MEL-28 = system: SK-MEL-28
T47D = system: T47D
MDA-N = system: MDA-N
DU-145 = system: DU-145
MDA-MB-231 = system: MDA-MB-231
SK-MEL-2 = system: SK-MEL-2
Hs-578T = system: Hs-578T
PC-3 = system: PC-3
KM12 = system: KM12
BT-549 = system: BT-549
MDA-MB-435 = system: MDA-MB-435
ACHN = system: ACHN

COc1cc2c([C@@H](OC(=O)c3ccccc3)c3ccc4c(c3)OCO4)nccc2c(OC)c1OC
GI50 (HOP-18): > 100 µM (inactive)
GI50 (RXF 393): 20.2 µM (inactive)
GI50 (786-0): > 100 µM (inactive)
GI50 (SF-295): 44.3 µM (inactive)
GI50 (EKVX): 43.6 µM (inactive)
GI50 (Malme-3M): 64.6 µM (inactive)
GI50 (SK-MEL-5): 17.9 µM (inactive)
GI50 (M19-MEL): 42.2 µM (inactive)
GI50 (OVCAR-8): 49.5 µM (inactive)
GI50 (RXF 631): 20.5 µM (inactive)
GI50 (CCRF-CEM): 28.6 µM (inactive)
GI50 (DMS-273): 32.4 µM (inactive)
GI50 (HL-60): 16.4 µM (inactive)
GI50 (RPMI-8226): 9.71 µM (inactive)
GI50 (COLO 205): 78.7 µM (inactive)
GI50 (U-251): 61.7 µM (inactive)
GI50 (SF-539): 82.2 µM (inactive)
GI50 (SN12C): 38.5 µM (inactive)
GI50 (UO-31): 2.7 µM (inactive)
GI50 (HT-29): 67.3 µM (inactive)
GI50 (NCI-H226): 23.5 µM (inactive)
GI50 (NCI-H23): 23.7 µM (inactive)
GI50 (XF498): 13.6 µM (inactive)
GI50 (HCC 2998): 92 µM (inactive)
GI50 (SW-620): > 100 µM (inactive)
GI50 (HCT-116): 26.9 µM (inactive)
GI50 (SK-OV-3): > 100 µM (inactive)
GI50 (LXFL 529): 16.7 µM (inactive)
GI50 (NCI-H522): 19.4 µM (inactive)
GI50 (A498): 32.2 µM (inactive)
GI50 (DLD-1): 53.3 µM (inactive)
GI50 (CAKI-1): 9.31 µM (inactive)
GI50 (UACC-62): 14.7 µM (inactive)
GI50 (LOX IMVI): 29.2 µM (inactive)
GI50 (NCI-H460): 54 µM (inactive)
GI50 (HOP-92): 65.5 µM (inactive)
GI50 (SF-268): 48.8 µM (inactive)
GI50 (SR): 17.8 µM (inactive)
GI50 (OVCAR-5): 76.9 µM (inactive)
GI50 (OVCAR-3): 25.6 µM (inactive)
GI50 (DMS-114): 16.4 µM (inactive)
GI50 (A549): 17.3 µM (inactive)
GI50 (KM-20L2): 42.1 µM (inactive)
GI50 (IGROV-1): > 100 µM (inactive)
GI50 (UACC-257): 38.4 µM (inactive)
GI50 (HOP-62): > 100 µM (inactive)
GI50 (K562): 24.9 µM (inactive)
GI50 (TK-10): 75.9 µM (inactive)
GI50 (SNB-19): 93.8 µM (inactive)
GI50 (HCT-15): 37.6 µM
GI50 (MOLT-4): 13.5 µM (inactive)
GI50 (SNB-75): 11.8 µM (inactive)
GI50 (M14): 53.6 µM (inactive)
GI50 (SNB-78): 85.7 µM (inactive)
GI50 (OVCAR-4): 18.7 µM (inactive)

CCOC(C/N=c1/nc(N(C)C)ss1)OCC
GI50 (HOP-18): > 66.4 µM (inactive)
GI50 (RXF 393): 19 µM (inactive)
GI50 (786-0): 17.7 µM (inactive)
GI50 (SF-295): 22.2 µM (inactive)
GI50 (EKVX): 34.1 µM (inactive)
GI50 (Malme-3M): 7.71 µM (inactive)
GI50 (SK-MEL-5): 0.832 µM (active)
GI50 (M19-MEL): 0.504 µM (active)
GI50 (OVCAR-8): 28.1 µM (inactive)
GI50 (RXF 631): 18.4 µM (inactive)
GI50 (MCF7): 2.5 µM (inactive)
GI50 (NCI/ADR-RES): > 100 µM (inactive)
GI50 (CCRF-CEM): 0.208 µM (active)
GI50 (DMS-273): 23 µM (inactive)
GI50 (HL-60): 1.31 µM (inactive)
GI50 (RPMI-8226): 1.16 µM (inactive)
GI50 (SK-MEL-28): 21.5 µM (inactive)
GI50 (COLO 205): 0.986 µM (active)
GI50 (U-251): 16 µM (inactive)
GI50 (SF-539): 17.4 µM (inactive)
GI50 (SN12C): 19.2 µM (inactive)
GI50 (UO-31): 43.5 µM (inactive)
GI50 (T47D): 23.4 µM (inactive)
GI50 (HT-29): 0.135 µM (active)
GI50 (NCI-H226): 24.6 µM (inactive)
GI50 (NCI-H23): 33.5 µM (inactive)
GI50 (MDA-N): 3.56 µM (inactive)
GI50 (XF498): 15 µM (inactive)
GI50 (HCC 2998): > 77.4 µM (inactive)
GI50 (SW-620): 2.6 µM (inactive)
GI50 (HCT-116): 14.9 µM (inactive)
GI50 (SK-OV-3): > 100 µM (inactive)
GI50 (LXFL 529): 0.489 µM (active)
GI50 (DU-145): > 71.1 µM (inactive)
GI50 (NCI-H522): 0.0998 µM (active)
GI50 (A498): > 82.8 µM (inactive)
GI50 (MDA-MB-231): 15.5 µM (inactive)
GI50 (DLD-1): 16.4 µM (inactive)
GI50 (CAKI-1): 22.6 µM (inactive)
GI50 (UACC-62): 1.17 µM (inactive)
GI50 (LOX IMVI): 16.3 µM (inactive)
GI50 (NCI-H460): 4.31 µM (inactive)
GI50 (SK-MEL-2): 13.8 µM (inactive)
GI50 (HOP-92): 18.4 µM (inactive)
GI50 (SF-268): 30.1 µM (inactive)
GI50 (SR): 1.48 µM (inactive)
GI50 (OVCAR-5): 19.5 µM (inactive)
GI50 (OVCAR-3): 9.89 µM (inactive)
GI50 (DMS-114): 18 µM (inactive)
GI50 (Hs-578T): > 54.8 µM (inactive)
GI50 (A549): 57 µM (inactive)
GI50 (KM-20L2): 27.7 µM (inactive)
GI50 (IGROV-1): > 27.5 µM (inactive)
GI50 (UACC-257): 26.4 µM (inactive)
GI50 (HOP-62): 65.6 µM (inactive)
GI50 (K562): 0.354 µM (active)
GI50 (TK-10): 33.3 µM (inactive)
GI50 (PC-3): 14.3 µM (inactive)
GI50 (SNB-19): > 67.1 µM (inactive)
GI50 (HCT-15): 25.8 µM
GI50 (MOLT-4): 0.593 µM (active)
GI50 (KM12): 4.61 µM (inactive)
GI50 (SNB-75): 27.6 µM (inactive)
GI50 (M14): 16.9 µM (inactive)
GI50 (SNB-78): 24.6 µM (inactive)
GI50 (BT-549): 23.4 µM (inactive)
GI50 (OVCAR-4): 16.6 µM (inactive)
GI50 (MDA-MB-435): 1.91 µM (inactive)
GI50 (ACHN): 26.2 µM (inactive)
